Values of other authors as cited in patent publication US9842198B2, “Screening method and systems utilizing mass spectral fragmentation patterns” (McMaster University, priority 2012, dated 2017).
*1 amine or outer side, *2 acyl side, *3 side chain or, on linkers, in order; H or OH if unused. Where a SMILES comes first, the peptide text is derived from it. Bridges are numbered along the chain shown (N, C = ends). [ ]: non-standard residue; d: D form. The star is where a group is joined. Cinnamoyl(2-(1Z-pentenyl)) = CCC/C=C\c1ccccc1/C=C/C(=O)*; X1 = CN(/C(=C/c1ccc(O)cc1)C(=O)[*:2])[*:1]; aThr = C[C@H](O)[C@H](N)C(=O)O

Test system: G-protein coupled receptor NK-1
Settings: natural ligands are tachykinin peptide hormones such as neurokinin A

Compound: CCC/C=C\c1ccccc1/C=C/C(=O)N[C@@H]1C(=O)N(C)/C(=C/c2ccc(O)cc2)C(=O)N[C@@H](CC(C)C)C(=O)N[C@H](Cc2ccccc2)C(=O)N[C@@H]([C@H](C)O)C(=O)N[C@@H](CC(N)=O)C(=O)N[C@@H](CO)C(=O)O[C@@H]1C [WS-9326A] ({Cinnamoyl(2-(1Z-pentenyl))}-T[X1]L[dF][aThr]NS; ester 1-C)
- antagonist activity at NK-1: potent antagonist
